Data published in patent US20240165231A1, “CAR-T DELIVERY OF SYNTHETIC PEPTIDE THERAPEUTICS” (THE TRUSTEES OF THE UNIVERSITY OF PENNSYLVANIA, priority 2021, published 2024).
“Also recorded” adds a separate entry of the source.

Legend:
[1] = system: STING; assay: BMDC stimulation with liposome-encapsulated STING peptides, CD86 as surrogate for STING activity; format: cell-based, mouse; conditions: peptides in liposomes, 48 hours, flow cytometry
Method: Six cGAMP mimetic peptides (also referred to herein as STING peptides) were selected to test for activity. […] BDMCs were prepared by harvesting bone marrow from mouse hindlimbs and culturing in media (RPMI+10% FBS in 30 ng/mL GM-CSF) for 4 days. BMDCs were then stimulated with potential STING agonist peptides encapsulated in liposomes (Lipofectamine 2000) and returned to culture with GM-CSF for 48 hours. BMDCs were then evaluated for expression of CD86 by flow cytometry as a surrogate for STING activity. A schematic of the study design is provided in the left panel of FIG. 15.

[2] = system: TSA breast cancer cells; assay: PD-L1 as readout of DNA damage response after liposomal PARPi mimetic peptides; format: cell-based; conditions: peptides in liposomes, 48 hours, flow cytometry
Method: PARP inhibitor peptides were computationally designed using methods as described in Example 2. Resulting PARP inhibitor (PARPi) mimetic peptides were encapsulated in liposomes and transfected into TSA breast cancer cells in vitro. 48 hours later, PD-L1 was assessed by flow cytometry as a readout of a DNA damage response. […] The PARP inhibitor olaparib was used as a positive control. […] In embodiments, the PARPi mimetic peptides may be introduced into a CAR construct for delivery to the tumor microenvironment via an engineered CAR-T cell.

[3] = system: B16 cells; assay: Cell death after liposomal SMACm6 with or without TNF; format: cell-based
Method: SMAC peptides were generated using a rational design strategy. Peptides with the best binding and potency (as measured by induction of cell death) in a dose response assay were selected for testing. SMAC mimetic peptide compositions were encapsulated in liposomes and transfected into B16 or KP (lung adenocarcinoma) cells in vitro at various concentrations in the presence of 20 ng/mL of TNF. 24 hours later, cell death was assessed by flow cytometry. Peptide 6 (SMACm6; SEQ ID NO: 8) was selected for further analysis based on dose response in multiple cell lines.
The SMACm6 mimetic peptides were encapsulated in liposomes and transfected into B16 or KP cells in vitro at various concentrations with or without 20 ng/mL TNF.

[4] = system: STING; assay: ST2-stimulated, Ova-loaded BMDCs (WT or STING KO) co-cultured with OT-I T cells; format: cell-based, mouse; conditions: for OT-I T cell Granzyme B / OT-I T cell IFNγ / OT-I T cell Ki67: 48 hours
Method: Activity of the STING agonist peptide ST2 was further characterized. BMDCs from wild type (WT) or STING knock-out (KO) mice were prepared as described above. Following stimulation with ST2, cells were loaded with Ova (SIINFEKL) peptide and then extensively washed to remove residual peptide. OT-I T cells specific for the Ova peptide were then added to BMDC cultures to assess DC activity and ability to stimulate CD8 T cell responses. OT-I T cell expression of Granzyme B (an indicator of cell killing activity), Ki67 (an indicator of cell proliferation), and IFNγ were assessed by flow cytometry 48 hours later.

Substance	CD86 expression in BMDCs [1]	PD-L1 expression [2]	also measured
CIFEFPGC [ST1C]	increased CD86 expression in BMDCs at statistically significant levels over negative control		
MFEYG [ST4]	increased CD86 expression in BMDCs at statistically significant levels over negative control		
APLPP [Pep1]		increased PD-L1 expression	
LFIKP [ST5]	increased CD86 expression in BMDCs at statistically significant levels over negative control		
TFEYSG [ST3]	increased CD86 expression in BMDCs at statistically significant levels over negative control		
IFEFPG [ST1]	increased CD86 expression in BMDCs at statistically significant levels over negative control		
APLGG [Pep2]		increased PD-L1 expression	
AVPIGGGGGGGGGGGGGGGIPVA [SMACm6]			relative cell death ([3]; absence of TNF): no cell death was observed; relative cell death ([3]; presence of 20 ng/mL TNF, increasing concentrations): increasing relative cell death; TNF dependence of cell death induction ([3]; presence or absence of TNF): dependent on TNF signaling
CAPLPPC [Pep1C]		increased PD-L1 expression	
VPHPP [Pep3]		increased PD-L1 expression	
LFILSG [ST2]	increased CD86 expression in BMDCs at statistically significant levels over negative control; also recorded: highest CD86 expression of the peptides tested		OT-I T cell Granzyme B ([4]; STING KO BMDCs): not significantly increased over liposome-only controls; OT-I T cell IFNγ ([4]; STING KO BMDCs): not significantly increased over liposome-only controls; OT-I T cell Ki67 ([4]; STING KO BMDCs): not significantly increased over liposome-only controls; OT-I T cell Granzyme B ([4]; WT BMDCs): significantly increased; OT-I T cell IFNγ ([4]; WT BMDCs): significantly increased; OT-I T cell Ki67 ([4]; WT BMDCs): significantly increased; STING dependence of T cell activation ([4]; WT versus STING KO): requires the STING pathway; also recorded: STING dependent
